Reference: publication PMC6030077, “Dual role of HDAC10 in lysosomal exocytosis and DNA repair promotes neuroblastoma chemoresistance” (Scientific Reports, 2018)

Tests used:
Assay type in all cases: cell-based, human
BE(2)-C cells [1] = test: Pulse-chase analysis of doxorubicin secretion/retention; conditions: 12 h pre-treatment, 1 µg/ml doxorubicin 3 h, washout, relative to t0
Procedure: To test whether HDAC10 inhibition prolonged the retention of doxorubicin, we used a pulse-chase approach in which BE(2)-C cells were pre-treated over night with HDAC6/10 inhibitors and then loaded with high concentrations of doxorubicin for 3 h (1 µg/ml). After doxorubicin washout, HDAC6/10 or HDAC6 inhibitors were re-added (t0), and intracellular doxorubicin fluorescence was measured at t0, as well as 3 h (t3h) and 6 h (t6h) after doxorubicin removal (Fig. 5h–k). […] In summary, secretion of doxorubicin was slowed down in case of HDAC6/10 inhibition but not by specific HDAC6 inhibition alone.
(§1) For flow cytometric quantification of intracellular doxorubicin after HDAC6/10 inhibition, BE(2)-C, SK-N-AS, IMR-32, HAP1 wild type and HDAC10 knockout cells were seeded in 6-well dishes at a density of 1.5 ∗ 10^5 cells/well (BE(2)-C and SK-N-AS, HAP1) and 3 ∗ 10^5 cells/well (IMR-32). Cells were treated with 25 ng/ml, 50 ng/ml, 100 ng/ml or 1 µg/ml doxorubicin, respectively, for 3–48 h (see respective figure legend). Where indicated, cells were co-treated with HDAC6/10 or lysosomal inhibitors. In case of co-treatment with vacuolin-1, vacuolin-1 was directly added to cells under doxorubicin treatment 1 h or 24 h prior to analysis. Flow cytometric quantification of intracellular doxorubicin after HDAC6, HDAC10 or P-glycoprotein knockdown in BE(2)-C cells was performed 5 days (P-glycoprotein) or 6 days (HDAC6/10) after transfection with siRNA. To that end, cells were seeded 3–4 days after transfection into 6-well dishes at 1.5 ∗ 10^5 cells per well and treated with 100 ng/ml doxorubicin +/− HDAC6/10 and lysosomal inhibitors for the last 24 h. After doxorubicin treatment, BE(2)-C, SK-N-AS, IMR-32 and HAP1 cells were washed with ice-cold RPMI w/o phenol-red and detached using Trypsin/EDTA for 3 minutes at 37 °C. Cells were centrifuged, resuspended in RPMI w/o phenol red and doxorubicin fluorescence was quantified on a BD FACSCanto II platform using the PE filter setting.

BE(2)-C cells [2] = test: Flow cytometric quantification of intracellular doxorubicin accumulation, BE(2)-C
Procedure: as §1

P-glycoprotein = test: Flow cytometric quantification of cell surface P-gp expression; conditions: BE(2)-C; 6 h tubastatin A 7.5 µM; vacuolin-1 10 µM 1 h
Procedure: Cells were dissociated from dishes using non-enzymatic cell dissociation reagent for five minutes. Cells were counted using a ViCell XR automatic cell counter (Beckmann Coulter) and 2.5 ∗ 10^5 cells were transferred into a pre-cooled 96-well round bottom plate (TPP92097). Cells were stained for 1.5–2 hours on ice with primary anti P-gp (Biozol ABA-AB00143-1.1), LAMP-1 (H4A3, DHSB) antibody or isotype control (DLN-05794, Dianova, […]) and for 1 hour with APC-labeled secondary antibody (Dianova 115-136-068). Cells were washed three times in FACS buffer (5% FBS in PBS) after each antibody incubation step. For evaluation of DNA double-strand breaks, cells were detached from dishes using trypsin, counted using a ViCell XR automatic cell counter (Beckmann Coulter) and transferred into a pre-cooled 96-well round bottom plate (4 ∗ 10^6 cells/well). Cells were fixed and permeabilized using the eBioscience^TM Foxp3/Transcription Factor Staining Buffer Set (Thermo Fisher Scientific). Cells were stained for 1.5 h with Phospho-Histone H2A.X (S139) primary antibody (CST #9718) and for 1 h in Alexa-488-labeled secondary antibody (ThermoFisher A-11008). Cells were washed three times in 1× permeabilization buffer after each antibody incubation step and fluorescence was quantified on a BD FACSCanto II platform.

BE(2)-C cells [3] = test: Flow cytometric analysis of LysoTracker DND-99 staining (lysosomal accumulation); conditions: 24 h
Procedure: Six days after siRNA transfection or 24 h after treatment with HDAC or lysosomal inhibitors, cells were stained for 1 h with 50 nM LysoTracker® Red DND-99 in medium under standard cell culture conditions. Cells were washed with ice-cold RPMI w/o phenol-red and detached using Trypsin/EDTA for 3 minutes at 37 °C. Cells were centrifuged, resuspended in RPMI w/o phenol red and LysoTracker® Red fluorescence was quantified on a BD FACSCanto II platform using the PE filter setting.

BE(2)-C cells [4] = test: Cell viability, automated trypan blue exclusion, BE(2)-C
Procedure: Adherent cell lines were trypsinized and cells were pooled with corresponding supernatant, centrifuged and resuspended in 1.5 ml cell culture media. Cell viability was measured by automated trypan blue staining with the Vi-Cell XR Cell Viability Analyzer from Beckman Coulter (Krefeld, Germany).

BE(2)-C cells [5] = test: Alkaline single cell gel electrophoresis assay (comet assay); conditions: 18 h
Procedure: BE(2)-C cells were treated with the HDAC6/10 inhibitor tubastatin A alone or in combination with the genotoxic drug doxorubicin (100 ng/ml doxorubicin, 7.5 µM tubastatin) for 18 h. Untreated cell aliquots and cells irradiated with 5 Gy (^137Cs radiation source, dose rate of 1 Gy min^−1) were used as negative and positive controls, respectively. Cells were subsequently analyzed by the alkaline comet assay as previously described[68],[69] with some modifications. In brief, the cells were mixed with 0.7% low-melting temperature agarose (Biozym), plated on two-well slides (Trevigen), and subsequently lysed overnight. Single cell electrophoresis was performed at 4 °C. Analysis of DNA damage was accomplished by fluorescence microscopy using a fully automated cell scanning system Metafer-4 (Metasystems) as described in[70]. DNA damage was assessed as “Tail DNA in %”. Statistical evaluation of two differently treated cell aliquots was performed with the Mann Whitney test using GraphPad Prism version 5.04 for Windows.

## CN1CCc2c(c3ccccc3n2Cc2ccc(C(=O)NO)cc2)C1 [tubastatin A]
BE(2)-C cells [1]
  retention of intracellular doxorubicin 3 h and 6 h after doxorubicin removal: retained higher levels of intracellular doxorubicin
BE(2)-C cells [2]; 100 ng/ml doxorubicin, 48 h, bufexamac 30 µM, tubastatin A 7.5 µM, tubacin 7.5 µM
  intracellular doxorubicin after co-treatment: increased intracellular doxorubicin
BE(2)-C cells [2]; 12 h pre-treatment with inhibitor, then 1 µg/ml doxorubicin for 3 h
  intracellular doxorubicin levels, short-term: increased intracellular doxorubicin levels
P-glycoprotein
  cell surface P-gp levels: slightly increased surface P-gp levels
BE(2)-C cells [3]; bufexamac 30 µM, tubastatin A 7.5 µM, tubacin 7.5 µM, VPA 1 mM, vacuolin-1 10 µM
  lysosomal accumulation (LysoTracker staining): caused lysosomal accumulation
BE(2)-C cells [3]; tubastatin A 7.5 µM + vacuolin-1 10 µM
  lysosomal accumulation on combination with vacuolin-1 compared to vacuolin-1 alone: no additional lysosomal accumulation
BE(2)-C cells [4]; 100 ng/ml doxorubicin, 7.5 µM tubastatin A or vacuolin-1 alone
  viability of BE(2)-C cells, single treatment: did not substantially reduce cell viability
BE(2)-C cells [4]; 7.5 µM tubastatin A
  viability of BE(2)-C cells, combination with 100 ng/ml doxorubicin, 24 h or 48 h: strongly reduced viability
BE(2)-C cells [5]; tubastatin A 7.5 µM + doxorubicin 100 ng/ml
  DSBs in comet assays, addition to doxorubicin treatment: substantially increased doxorubicin induced DSBs
BE(2)-C cells [5]; tubastatin A 7.5 µM or doxorubicin 100 ng/ml
  DSBs in comet assays, single treatment: increased DSBs only trend-wise
